In patent publication US20240024262A1, “USE OF VALERIC ACID IN PREPARATION OF DRUG FOR PREVENTING AND TREATING DIABETES” (Harbin Medical University, priority 2022, published 2024):

Experiments:
[1] = system: mouse primary islet β cells; assay: Insulin secretion ability test; type: cell-based; settings: for secretion levels of the insulin stimulated under a high glucose environment: high sugar (20 mmol/L), after PA intervention
From the text: (§1) Through an insulin secretion ability test, the levels of the insulin produced in each group under concentrations of no sugar, low sugar (2.8 mmol/L) and high sugar (20 mmol/L) are compared.

Beta-TC-6 cell line [2] = assay: Insulin secretion ability test; type: cell-based, mouse; settings: for secretion levels of the insulin stimulated under a high glucose environment: high sugar (20 mmol/L), after PA intervention
From the text: as §1

[3] = system: mouse primary islet β cells; assay: EdU-488 cell proliferation test; type: cell-based; settings: PA alone, or SV 1 mmol/L after PA compared with PA group
From the text: (§2) During the cell testing phase of this example, a cell line of mouse insulinoma islet β cells (Beta-TC-6) and mouse primary islet β cells were purchased from Wuhan Prosser Life Technology Co., Ltd for carrying out relevant experimental researches.
(§3) A cell Counting Kit 8 (CCK-8) is a convenient and reliable method to detect the cell activity. In this example, a BeyoClick™ EdU-488 kit is further used to detect the proliferation level of the cells. EdU (5-ethynyl-2′-deoxyuridine) is a thymidine analog that may replace T to infiltrate replicated DNA molecules in the process of cell proliferation. The replication activity of DNA was detected by specific reaction of EdU and an Apollo® Fluor 488 fluorescent dye, an EdU label was correctly detected, and then proliferation of cells was reflected. In this example, expression of Ki-67 in the cells was detected by immunofluorescence (immunocytochemistry), and apoptosis was analyzed by referring to a one-step TUNEL cell apoptosis detection kit (red fluorescence). Meanwhile, this example used a flow cytometry technology to complete detection of a cell cycle and apoptosis.
(§4) The following drugs are taken as comparative examples: • 1. […]

[4] = system: mouse primary islet β cells; assay: TUNEL cell apoptosis detection test; type: cell-based; settings: PA intervention, then SV intervention
From the text: as §2, §3

Beta-TC-6 cells [5] = assay: Flow cytometry apoptosis analysis; type: cell-based, mouse; settings: Beta-TC-6, flow cytometry; PA intervention, then SV intervention
From the text: as §3
Sodium valerate SV can weaken PA induced apoptosis to a certain extent (FIG. 17).

Beta-TC-6 cells [6] = assay: EdU-488 cell proliferation test; type: cell-based, mouse; settings: PA alone, or SV 1 mmol/L after PA compared with PA group
From the text: as §2, §3, §4

Beta-TC-6 cell line [7] = assay: TUNEL cell apoptosis detection test; type: cell-based, mouse; settings: PA intervention, then SV intervention
From the text: as §2, §3

[8] = system: Leptin receptor gene deficient db/db mice; assay: Type 2 diabetes model db/db mice: food intake, body weight, blood glucose-related indexes; type: in vivo; settings: comparison among groups / vs PBS control group
Method: The following drugs are taken as comparative examples: • 1. Comparative example where an existing drug serves as a positive control • (1) High-fat fed C57BL6/J mice • Sodium butyrate gavage intervention group: 75.0 mg/kg • (2) Type 2 diabetes model db/db mice • Sodium butyrate gavage intervention group: 75.0 mg/kg • Harmine gavage intervention group: 10.0 mg/kg • Metformin gavage intervention group: 100.0 mg/kg • (3) Cell line of mouse insulinoma islet β cells (Beta-TC-6) • Sodium butyrate intervention group: 1.0 mmol/L • Harmine intervention group: 10.0 μmmol/L • (4) Mouse islet β primary cell • Sodium butyrate intervention group: 1.0 mmol/L • Harmine intervention group: 10.0 μmmol/L • 2. A control test is taken as a comparative example • (1) High-fat fed C57BL6/J mice • Ordinary feed feeding group, and high-fat feed PBS gavage group • (2) Type 2 diabetes model db/db mice • Control feeding group and PBS gavage group • (3) Cell line of mouse insulinoma islet β cells (Beta-TC-6) • Blank control group, and palmitic acid (PA) intervention negative control group • (4) Mouse islet β primary cell • Blank control group, and PA intervention negative control group • Results are as follows:
(II) In the animal test, the therapeutic effect of the valeric acid on diabetes is observed by using Leptin receptor gene deficient db/db mice (purchased from Nanjing Junke Biotechnology Co., Ltd.) as test subjects.

COc1ccc2c(c1)[nH]c1c(C)nccc12 [Harmine]
secretion levels of the insulin stimulated under a high glucose environment [1]: significantly increased
secretion levels of the insulin stimulated under a high glucose environment (Beta-TC-6 cell line [2]): significantly increased

CCCCCCCCCCCCCCCC(=O)O [PA, palmitic acid, reference compound]
proportion of EdU (+) cells [3]: decreased significantly
proportion of apoptotic cells (TUNEL) [4]: increased significantly
proportion of apoptotic cells, Q2 quadrant (late apoptosis) and Q3 quadrant (early apoptosis) (Beta-TC-6 cells [5]): increased significantly
proportion of EdU (+) cells (Beta-TC-6 cells [6]): decreased significantly
secretion ability of the insulin ([1]; PA intervention): decreased significantly
proportion of apoptotic cells (TUNEL) (Beta-TC-6 cell line [7]): increased significantly
secretion ability of the insulin (Beta-TC-6 cell line [2]; PA intervention): decreased significantly

CCCC(=O)[O-].[Na+] [Sb, sodium butyrate]
secretion levels of the insulin stimulated under a high glucose environment [1]: significantly increased
secretion levels of the insulin stimulated under a high glucose environment (Beta-TC-6 cell line [2]): significantly increased

CN(C)C(=N)N=C(N)N [metformin, reference compound]
insulin secretion [8]: basically no difference

CCCCC(=O)[O-].[Na+] [sodium valerate]
proportion of EdU (+) cells [3]: increased significantly
proportion of apoptotic cells (TUNEL) [4]: slightly decreased
proportion of apoptotic cells, Q2 quadrant (late apoptosis) and Q3 quadrant (early apoptosis) (Beta-TC-6 cells [5]): decreased significantly
proportion of EdU (+) cells (Beta-TC-6 cells [6]): increased significantly
secretion levels of the insulin stimulated under a high glucose environment [1]: more significant
secretion levels of the insulin stimulated under a high glucose environment ([1]; listed as SV): significantly increased
proportion of apoptotic cells (TUNEL) (Beta-TC-6 cell line [7]): slightly decreased
secretion levels of the insulin stimulated under a high glucose environment (Beta-TC-6 cell line [2]): more significant
secretion levels of the insulin stimulated under a high glucose environment (Beta-TC-6 cell line [2]; listed as SV): significantly increased
